{"source": "patent US9625466B2", "about": "“Signal amplification methods for the imaging of protein synthesis and neurotransmitter transport” (CORNELL UNIVERSITY, priority 2011, dated 2017)", "key": {"ternary complex [1]": {"molecular_target": "T1, ternary complex (Escherichia coli, UniProt P0CE48)", "T1 construct": "6-His tag followed by TEV protease site (N); made in house; host or cells: E. coli (bacterial expression vector pPROEX-Ht-b)", "test": "Equilibrium titration of nucleotide into Cy3-labeled Phe-tRNAPhe with saturating EF-Tu", "assay_type": "binding, E. coli", "details": "for RF Increase (%): Cy3 relative fluorescence increase at saturation, nucleotide titrated", "text": "Initial experiments focused on the molecular determinants of ternary complex formation in vitro using E. coli EF-Tu and tRNA^Phe. […] Depending on the solution conditions of the experiment, the formation of ternary complex can be detected as either a rise or fall in fluorescence intensity depending strongly on the solution conditions of the Cy3 fluorophore linked to tRNA^Phe. Other tRNA species (e.g., Cy3-labeled tRNA^Lys) undergo similar changes in fluorescence intensity.\nFluorescence experiments were performed using a Photon Technology International fluorescence meter with a 550 nm high pass filter on the emission side. All samples were analyzed in a 3 mL quartz cuvette, with a stir bar, maintained at 23° C. […] Fluorescence intensity was measured by exciting Cy3 labeled tRNA^Phe with 532 nm light and recording emission intensities at 565 nm. The sample was allowed to mix for 1 minute after each subsequent addition of reagent before data acquisition.\n[formula] (Abrahamson 1985). Values of Kd were obtained by performing a nonlinear least squares fit of the data from fluorescence experiments to equation 5 in Matlab (R2011a). The best-fit values are reported with asymptotic 95% confidence intervals.\nTo assess the affinity and nature of GTP's interactions with ternary complex, analogous titration experiments were carried out in which GTP was added to a solution of 5 nM Phe-tRNA^Phe (Cy3-acp3U47) in the presence of saturating concentrations of EF-Tu (40 times IQ). […] The non-hydrolysable analogs each saturated at a relative fluorescence value well below 30%, illustrating EF-Tu's sensitivity to the position of the gamma phosphate."}, "EF-Tu": {"molecular_target": "EF-Tu (Escherichia coli, UniProt P0CE47)", "details": "cited from earlier work"}, "ternary complex [2]": {"molecular_target": "T1, ternary complex", "test": "Functional drug assay: dissociation of pre-formed fluorescent ternary complex", "assay_type": "biochemical, E. coli", "details": "for kapp,2 apparent rate of ternary complex dissociation: compound added to pre-formed ternary complex (400 nM EF-Tu/EF-Ts, 5 nM Cy3 Phe-tRNAPhe, 10 μM GTP), GDP 100 μM", "protocol": "After ternary complex was formed, drug was added to a final concentration of 1 μM. Decay curves were fit using non-linear least squares method as previously mentioned.\nTo test this hypothesis, ternary complex was formed at low, saturating concentrations of GTP (10 μM). […] To the formed complex, 100 μM GDP was then added and the rate of ternary complex dissociation was followed as a function of time.\nTo illustrate the dynamic equilibrium that exists between ternary complex and its constituents, EF-Tu-targeting drugs were delivered to pre-formed ternary complex in the same manner as GDP described above."}, "Phe-tRNA^Phe [3]": {"system": "Phe-tRNA^Phe", "details": "4° C., pH 7.4; cited from earlier work"}, "Phe-tRNA^Phe [4]": {"system": "Phe-tRNA^Phe", "details": "for RF Increase (%): Cy3 relative fluorescence increase on ternary complex formation, EF-Tu titrated"}, "Phe-tRNA^Phe [5]": {"system": "Phe-tRNA^Phe"}, "[6]": {"details": "5 nM Phe-tRNAPhe (Cy3-acp3U47), saturating EF-Tu (400 nM EF-Tu/EF-Ts), read-out: Kd (apparent affinity of nucleotide for ternary complex)"}}, "note": "Values joined by “and” are separate entries in the source; they are usually repeats but may differ in a detail not shown here. Equal entries are not always repeated. Where two headings read alike, the source gives them in different places. Marks after values point to notes of the source that are not given here.", "data": [{"compound": "Nc1nc2c(ncn2[C@@H]2O[C@H](COP(=O)(O)OP(=O)(O)NP(=O)(O)O)[C@@H](O)[C@H]2O)c(=O)[nH]1", "note": "[GDPNP, guanylyl-imino-diphosphate]", "values": [{"measurement": "Kd", "setting": "ternary complex [1]; [6]", "value": 9270, "unit": "nM"}, {"measurement": "RF Increase (%)", "setting": "ternary complex [1]", "value": 7.3, "unit": "%"}]}, {"compound": "Nc1nc2c(ncn2[C@@H]2O[C@H](COP(=O)(O)OP(=O)(O)O)[C@@H](O)[C@H]2O)c(=O)[nH]1", "note": "[GDP]", "values": [{"measurement": "affinity for GDP relative to GTP", "setting": "EF-Tu; EF-Tu", "value": 40, "unit": "fold"}, {"measurement": "dissociation rate of GDP from EF-Tu•GDP•EF-Ts", "setting": "EF-Tu; Gromadski 2002", "value": 125, "unit": "s⁻¹"}, {"measurement": "kapp,2 apparent rate of ternary complex dissociation", "setting": "ternary complex [2]", "value": "0.3 s⁻¹ and 0.30 s⁻¹"}]}, {"compound": "Nc1nc2c(ncn2[C@@H]2O[C@H](COP(=O)(O)OP(=O)(O)OP(O)(O)=S)[C@@H](O)[C@H]2O)c(=O)[nH]1", "note": "[GDPγS, guanosine 5′[γ-thio]triphosphate]", "values": [{"measurement": "Kd", "setting": "ternary complex [1]", "value": 3670, "unit": "nM"}, {"measurement": "RF Increase (%)", "setting": "ternary complex [1]", "value": 5.5, "unit": "%"}]}, {"compound": "Nc1nc2c(ncn2[C@@H]2O[C@H](COP(=O)(O)OP(=O)(O)OP(=O)(O)O)[C@@H](O)[C@H]2O)c(=O)[nH]1", "note": "[GTP, guanosine nucleotide triphosphate]", "values": [{"measurement": "Kd", "setting": "ternary complex [1]; [6]", "value": 696, "unit": "nM"}, {"measurement": "RF Increase (%)", "setting": "ternary complex [1]", "value": 30, "unit": "%"}, {"measurement": "Kd", "setting": "ternary complex [1]; Example 2, saturating EF-Tu (~300 nM), read-out: affinity of GTP in the formation of ternary complex", "value": "~200", "unit": "nM"}, {"measurement": "kon of GTP for the complex (kon=koff/KD)", "setting": "ternary complex [1]; model, from koff 0.3 s^−1 and KD", "value": "~1e+06", "unit": "M⁻¹ s⁻¹"}]}, {"compound": "C=C(NC(=O)C(=C)NC(=O)c1csc(C2=N[C@@H]3c4csc(n4)[C@H]4NC(=O)c5csc(n5)[C@H]([C@](C)(O)[C@@H](C)O)NC(=O)[C@H]5CSC(=N5)/C(=C/C)NC(=O)[C@H]([C@@H](C)O)NC(=O)c5csc(n5)[C@]3(CC2)NC(=O)[C@H](C)NC(=O)C(=C)NC(=O)[C@H](C)NC(=O)[C@H]([C@@H](C)CC)N[C@@H]2C=Cc3c([C@H](C)O)cc(nc3[C@H]2O)C(=O)O[C@@H]4C)n1)C(N)=O", "note": "[Thiostrepton]", "values": [{"measurement": "kapp,2 apparent rate of ternary complex dissociation", "setting": "ternary complex [2]", "value": 0, "unit": "s⁻¹"}, {"measurement": "disruption of the ternary complex", "setting": "ternary complex [2]; thiostrepton added to pre-formed ternary complex (10 μM per FIG. 17)", "value": "did not lead to disruption of the ternary complex"}]}, {"compound": "EF-Tu (GTP): elongation factor Tu from E. coli, GTP-bound form, added as EF-Tu/EF-Ts complex", "values": [{"measurement": "rate of association determined previously", "setting": "Phe-tRNA^Phe [3]", "value": "1.5e+06", "unit": "M⁻¹ s⁻¹"}, {"measurement": "RF Increase (%)", "setting": "Phe-tRNA^Phe [4]", "value": 30, "unit": "%"}, {"measurement": "RF Increase (%)", "setting": "Phe-tRNA^Phe [4]; listed as EF-Tu", "value": "approximately 30%"}, {"measurement": "Kd", "setting": "Phe-tRNA^Phe [4]; read-out: Kd (apparent dissociation constant between EF-Tu•GTP and Phe-tRNAPhe), 5 nM Phe-tRNAPhe (Cy3-acp3U47), 10 μM GTP, 23° C., ± 95% CI", "value": "12.7 ± 1.1", "unit": "nM"}, {"measurement": "Kd", "setting": "Phe-tRNA^Phe [4]; read-out: Kd (apparent dissociation constant between EF-Tu•GTP and Phe-tRNAPhe), 5 nM Phe-tRNAPhe (Cy3-acp3U47), 10 μM GTP, 23° C., ± 95% CI, listed as EF-Tu•GTP", "value": 12.6, "unit": "nM"}, {"measurement": "Kd", "setting": "Phe-tRNA^Phe [4]; read-out: Kd of EF-Tu's interaction with Phe-tRNAPhe, Example 2, saturating GTP (>10 μM)", "value": "≤ 15", "unit": "nM"}, {"measurement": "association constant kon", "setting": "Phe-tRNA^Phe [5]; EF-Tu and GTP (10 μM) added to 5 nM Cy3-labeled Phe-tRNAPhe", "value": "1.4e+06", "unit": "M⁻¹ s⁻¹"}, {"measurement": "dissociation rate koff", "setting": "Phe-tRNA^Phe [5]; fit of triplicate time course to equation 7", "value": 0.08, "unit": "s⁻¹"}]}, {"compound": "Kirromycin", "values": [{"measurement": "reduction of relative fluorescence", "setting": "ternary complex [2]; 1 μM added to pre-formed ternary complex", "value": "~20", "unit": "%"}, {"measurement": "kapp,2 rate of GDP mediated dissociation in the presence of kirromycin", "setting": "ternary complex [2]; 1 μM kirromycin, then GDP", "value": "0.02* s^−1"}, {"measurement": "dissociation of ternary complex by saturating GDP with kirromycin present", "setting": "ternary complex [2]; 1 μM kirromycin, then saturating GDP", "value": "did not dissociate ternary complex in the time frame observed"}]}]}
